Measurements reported in patent US20240208932A1, “ARYLAMINO DERIVATIVE ESTROGEN RECEPTOR MODULATOR AND USE THEREOF” (XIZANG HAISCO PHARMACEUTICAL CO., LTD., priority 2021, published 2024).

Experiments:
ERα = ERα (Homo sapiens (Human), UniProt P03372); assay: Degradation effect of compounds on ERα in MCF-7 and CAMA-1 cells (automated western blot, 24 h); format: cell-based; conditions: ERα degradation in MCF-7 cells; for DC50: 24 hours; for Dmax at 0.1 µM: MCF7, @100 nM
Description: 2. Degradation Effect of Compounds on ERα in MCF-7 and CAMA-1 Cells
Breast cancer cells MCF-7 and CAMA-1 were purchased from ATCC, the cell media were all EMEM+10% FBS, and the cells were cultured in an incubator at 37° C. under 5% CO2. On the first day, the cells in an exponential phase were collected. With a 10% css-FBS phenol red-free medium, the cell suspension was adjusted to a corresponding concentration, plated at 300000 cells/well and incubated for 3 days. After 3 days, the liquid in the well was aspirated, and a 10% css-FBS phenol red-free medium containing the compound to be tested was added and cultured in an incubator at 37° C. under 5% CO2. After 24 hours, 60 μl of RIPA lysis solution (containing 1× protease inhibitor cocktail) was added to each well, lysed on ice for 15 minutes, and then centrifuged at 4° C. for 10 minutes at 12000 g. The supernatant protein samples were collected, and protein quantification was performed by a BCA method. ERα was detected using fully automatic protein expression quantitative analysis, which involved diluting the protein to be tested to 1.5 mg/mL. 4 μL of the diluted protein samples were added to 1 μL of 5×Master Mix (provided in the kit), and the prepared samples were denatured at 95° C. for 5 min and placed on ice for use. Antibody Diluent II (provided in the kit) was used to dilute the primary antibody, in which the dilution ratios of ERα (CST, 13258S) and β-actin (CST, 3700) antibodies were 1:40 and 1:500, respectively, the secondary antibody was a 1:1 mixture of goat anti-mouse and goat anti-rabbit secondary antibodies, and the chromogenic solution was a 1:1 mixture of Lumino-S and Peroxide. The prepared reagents were successively added to an assay plate according to instructions of the kit and detected on an instrument. Western blot band processing was performed using “Compass for SW”, a fully automatic protein expression quantitative analysis software, in which western blot bands were automatically simulated based on signal values. The proportion of ERα relative to the solvent control at different drug concentrations according to equation (1), wherein Acompound was the relative peak area of ERα in the treated group, and Asolvent was the relative peak area of ERα in the solvent control group.
ERα%=Acompound/Asolvent×100 equation (1)
DC50 calculation: Calculation was performed according to equation (1), and using Graphpad Prism 8.0 software, the compound concentration DC50 values at which the degradation rate of ERα was 50% were calculated using a non-linear four-parameter function (Non linear regression (curve fit)) (Table 1).

MCF-7 cells = assay: Inhibitory effect of compounds on the proliferation of MCF-7 cells (CellTiter-Glo, 7 days); format: cell-based; conditions: Homo sapiens, MCF7, 168 h, 7 days incubation
Description: 1. Inhibitory Effect of Compounds on the Proliferation of MCF-7 Cells
Breast cancer cells MCF-7 were purchased from ATCC, the cell media were all EMEM+10% FBS, and the cells were cultured in an incubator at 37° C. under 5% CO2. On the first day, cells in the exponential growth phase were collected and cultured in a 10% css-FBS phenol red-free medium without cytokines for 3 days. After the completion of culture, a 10% css-FBS phenol red-free medium was used to adjust the cell suspension to the corresponding concentration and same was plated to 1000 cells/well. P-estradiol and compounds of different concentrations were added. A plate without adding any reagent was taken and used as Day0 with a reading value RLUday0, determined with CellTiter-Glo kit, placed in an incubator and incubated for 7 days. After the incubation was completed, according to operation instructions for a CellTiter-Glo kit (Promega, G7573), 50 μL of CellTiter-Glo solutions, which were pre-melted and equilibrated to room temperature, were added to each well, and the mixtures were uniformly mixed for 2 min using a microplate shaker. The plate was placed at room temperature for 10 min, and then […] signal values were measured using a microplate reader (PHERAstar FSX). Chemiluminescence readouts were processed using origin9.2 software and the DoseResp function was used to calculate the GIsovalue for the inhibitory activity of compounds on the proliferation of cells (Table 1). The results were processed according to equation (1), the inhibition rate of the compound at different concentrations was calculated, and the GI50 value of the compound with a proliferation rate of 50% was calculated using origin9.2 software, wherein RLUcompound was the readout of the treated group, and RLUcontrol was the average value of the solvent control group.
Growth %=(RLUcompound−RLUday0)/(RLUcontrol−RLUday0)×100 equation (1)

CYP2C19 = CYP2C19 (Homo sapiens (Human), UniProt P33261); assay: CYP450 enzyme inhibition test, human liver microsomes; format: in vitro ADME; conditions: incubation concentration 0-50/100 μM
Description: 6. CYP450 Enzyme Inhibition Test
The purpose of this study was to evaluate the effect of the test compound on the activity of five isoenzymes (CYP1A2, CYP2C9, CYP2C19, CYP2D6 and CYP3A4) of human liver microsomal cytochrome P450 (CYP) by using an in vitro testing system. The specific probe substrates of CYP450 isoenzymes were incubated with human liver microsomes and test compounds of different concentrations, and reduced nicotinamide adenine dinucleotide phosphate (NADPH) was added to initiate the reaction. After the completion of the reaction, the sample was treated and liquid chromatography-tandem mass spectrometry (LC-MS/MS) was used to quantitatively detect metabolites produced by specific substrates, changes in CYP enzyme activity were determined, and IC50 value was calculated to evaluate the inhibitory potential of the test compound on each CYP enzyme subtype.

Chain of ERα (P03372 whole entry): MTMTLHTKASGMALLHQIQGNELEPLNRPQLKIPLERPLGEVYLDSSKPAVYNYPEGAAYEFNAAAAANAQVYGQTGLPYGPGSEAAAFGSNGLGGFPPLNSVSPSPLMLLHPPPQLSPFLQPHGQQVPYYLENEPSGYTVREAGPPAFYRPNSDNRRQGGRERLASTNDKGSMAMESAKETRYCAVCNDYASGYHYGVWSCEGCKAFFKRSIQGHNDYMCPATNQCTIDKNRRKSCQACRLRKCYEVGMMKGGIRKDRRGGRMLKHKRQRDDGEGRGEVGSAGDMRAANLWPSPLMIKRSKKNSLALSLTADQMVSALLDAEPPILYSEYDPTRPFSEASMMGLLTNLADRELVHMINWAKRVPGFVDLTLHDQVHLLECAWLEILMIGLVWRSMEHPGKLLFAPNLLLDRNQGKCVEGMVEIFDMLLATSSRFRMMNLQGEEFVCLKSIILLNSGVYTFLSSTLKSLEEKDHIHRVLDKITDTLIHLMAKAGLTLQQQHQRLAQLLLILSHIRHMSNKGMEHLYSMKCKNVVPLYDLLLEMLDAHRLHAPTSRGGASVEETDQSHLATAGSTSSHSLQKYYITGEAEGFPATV
Chain of CYP2C19 (P33261 whole entry): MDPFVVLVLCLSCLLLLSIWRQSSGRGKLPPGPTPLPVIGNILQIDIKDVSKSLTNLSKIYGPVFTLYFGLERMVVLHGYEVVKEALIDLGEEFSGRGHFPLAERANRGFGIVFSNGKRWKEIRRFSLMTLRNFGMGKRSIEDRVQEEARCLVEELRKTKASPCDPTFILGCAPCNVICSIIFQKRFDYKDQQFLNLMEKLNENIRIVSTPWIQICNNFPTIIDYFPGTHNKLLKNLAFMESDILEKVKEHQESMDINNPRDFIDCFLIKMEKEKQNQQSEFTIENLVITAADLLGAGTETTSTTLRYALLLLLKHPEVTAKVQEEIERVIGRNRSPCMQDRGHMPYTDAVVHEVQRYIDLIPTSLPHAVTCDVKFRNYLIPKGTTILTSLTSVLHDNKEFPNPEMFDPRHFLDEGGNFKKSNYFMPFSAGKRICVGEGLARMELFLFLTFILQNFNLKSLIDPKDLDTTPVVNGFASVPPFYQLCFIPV

Row | DC50 (ERα) | Dmax at 0.1 µM (ERα) | GI50 (MCF-7 cells) | IC50 (CYP2C19) | SMILES
1 | 0.47 nM | 70% |  |  | C[C@@H]1Cc2c([nH]c3ccc(F)cc23)[C@@H](c2c(F)cc(N[C@H]3CCN(CCCF)C3)cc2F)N1CC(F)(F)F [Compound 18, (S)—N-(3,5-difluoro-4-((1R,3R)-6-fluoro-3-methyl-2-(2,2,2-trifluoroethyl)-2,3,4,9-tetrahydro-1H-pyrido[3,4-b]indol-1-yl)phenyl)-1-(3-fluoropropyl)pyrrolidin-3-amine]
2 | 1.23 nM | 88% |  |  | C[C@@H]1Cc2c([nH]c3cc(F)ccc23)[C@@H](c2c(F)cc(N[C@H]3CCN(CCCF)C3)cc2F)N1CC(F)(F)F [Compound 32, (S)—N-(3,5-difluoro-4-((1R,3R)-7-fluoro-3-methyl-2-(2,2,2-trifluoroethyl)-2,3,4,9-tetrahydro-1H-pyrido[3,4-b]indol-1-yl)phenyl)-1-(3-fluoropropyl)pyrrolidin-3-amine]
3 |  |  | 0.219 nM | > 50000 nM | C#Cc1ccc2c3c([nH]c2c1)[C@@H](c1c(F)cc(N[C@H]2CCN(CCCF)C2)cc1F)N(CC(F)(F)F)[C@H](C)C3 [Compound 43, (S)—N-(4-((1R,3R)-7-ethynyl-3-methyl-2-(2,2,2-trifluoroethyl)-2,3,4,9-tetrahydro-1H-pyrido[3,4-b]indol-1-yl)-3,5-difluorophenyl)-1-(3-fluoropropyl)pyrrolidin-3-amine]
